Data taken from EP4434982A1, “(S)-2-(2-METHYLAZETIDIN-1-YL)PYRIMIDINE DERIVATIVE AND PHARMACEUTICAL COMPOSITION COMPRISING SAME” (LG Chem, Ltd., priority 2021, dated 2023).

What follows are molecules tested against T1, Ketohexokinase (KHK) (Homo sapiens, UniProt P50053) (assay: measurement of activity in vitro of ketohexokinase inhibitor (Transcreener ADP2 TR-FRET Red Assay, ADP produced)). Details: KHK pre-reacted with inhibitor 30 minutes, then substrate (ATP, fructose) 15 minutes; Ki by Morrison equation.
T1 construct: His tag; made in house; host or cells: E. coli
T1 sequence (P50053 1-298): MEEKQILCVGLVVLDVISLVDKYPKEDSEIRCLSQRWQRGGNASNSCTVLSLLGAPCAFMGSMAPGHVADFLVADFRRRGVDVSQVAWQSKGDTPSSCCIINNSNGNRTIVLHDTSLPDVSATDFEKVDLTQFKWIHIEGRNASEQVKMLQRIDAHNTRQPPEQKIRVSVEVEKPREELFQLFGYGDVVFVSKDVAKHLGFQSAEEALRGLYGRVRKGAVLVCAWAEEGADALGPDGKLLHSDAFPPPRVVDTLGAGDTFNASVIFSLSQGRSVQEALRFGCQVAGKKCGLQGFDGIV
Assay type: biochemical
Method: Ketohexokinase (KHK) was expressed in E. Coli and purified using His tag. In order to measure the activity of the purified KHK, Transcreener ADP2 TR-FRET Red Assay kit of BellBrook Labs was used. A method of measuring the amount of ADP produced was used using TR-FRET after reacting a solution including a suitable concentration of KHK protein and ATP, and fructose for 15 minutes. In order to see the activity of a ketohexokinase (KHK) inhibitor, ketohexokinase (KHK) and a suitable concentration of an inhibitor were reacted first for 30 minutes, and then, reacted with a solution including the substrate of ketohexokinase (KHK) for 15 minutes. Then, reaction for TR-FRET was performed for 1 hour, and fluorescence was measured using Envision equipment of PerkinElmer. According to the optimization procedure of TR-FRET published by BellBrook Lab, the set value of the Envision equipment was determined.
The result values by concentration of the ketohexokinase (KHK) inhibitor were determined as the ratio of a wavelength of 665 nm and a wavelength of 615nm. The 665/615 ratio value by concentration of each inhibitor was converted to ADP concentration based on ADP standard curve, and inhibition activity Ki value was obtained using Morrison equation by statistical software (Prizm). Meanwhile, the Ki value is a value representing the binding affinity of the inhibitor and an enzyme, and a lower value means better inhibitory activity.

Ki [nM] | SMILES
≤ 10 | C[C@H]1CCN1c1nc(-c2ccc(CC(=O)N3CCNCC3)cc2)c2c(n1)C(F)(F)CC2 [Example 30, (S)-2-(4-(7,7-difluoro-2-(2-methylazetidin-1-yl)-6,7-dihydro-5H-cyclopenta[d]pyrimidin-4-yl)phenyl)-1-(piperazin-1-yl)ethan-1-one]
≤ 10 | C[C@H]1CCN1c1nc(N2CCN(CC(=O)N3CCNCC3)CC2)cc(C(F)(F)F)n1 [Example 11, (S)-2-(4-(2-(2-methylazetidin-1-yl)-6-(trifluoromethyl)pyrimidin-4-yl)piperazin-1-yl)-1-(piperazin-1-yl)ethan-1-one]
≤ 10 | C[C@H]1CCN1c1nc(-c2ccc(CC(=O)N3CCNCC3)nc2)cc(C(F)(F)F)n1 [Example 31]
≤ 10 | C[C@H]1CCN1c1nc(C2CCN(CC(=O)N3CCNCC3)CC2)c2c(n1)C(F)(F)CC2 [Example 17, (S)-2-(4-(7,7-difluoro-2-(2-methylazetidin-1-yl)-6,7-dihydro-5H-cyclopenta[d]pyrimidin-4-yl)piperidin-1-yl)-1-(piperazin-1-yl)ethan-1-one]
10 to 100 | C[C@H]1CCN1c1nc(N2CCC(OCC(=O)N3CCNCC3)CC2)cc(C(F)(F)F)n1 [Example 27]
≤ 10 | C[C@H]1CCN1c1nc(-c2ccc(OCC(=O)N3CCNCC3)nc2)cc(C(F)(F)F)n1 [Example 39, (S)-2-((5-(2-(2-methylazetidin-1-yl)-6-(trifluoromethyl)pyrimidin-4-yl)pyridin-2-yl)oxy)-1-(piperazin-1-yl)ethan-1-one]
≤ 10 | C[C@H]1CCN1c1nc(N2C[C@@H]3[C@H](C2)[C@H]3CS(=O)(=O)N2CCNCC2)c2c(n1)C(F)(F)CC2 [Example 25, 7,7-difluoro-2-((S)-2-methylazetidin-1-yl)-4-((1R,5S,6S)-6-((piperazin-1-ylsulfonyl)methyl)-3-azabicyclo[3.1.0]hexan-3-yl)-6,7-dihydro-5H-cyclopenta[d]pyrimidine]
≤ 10 | C[C@H]1CCN1c1nc(N2CCN(CC(=O)N3CCNCC3)C(=O)C2)c2c(n1)C(F)(F)CC2 [Example 16, (S)-4-(7,7-difluoro-2-(2-methylazetidin-1-yl)-6,7-dihydro-5H-cyclopenta[d]pyrimidin-4-yl)-1-(2-oxo-2-(piperazin-1-yl)ethyl)piperazin-2-one]
10 to 100 | C[C@H]1CCN1c1nc(N2CC(OCC(=O)N3CCNCC3)C2)c2c(n1)C(F)(F)CCC2 [Example 4]
≤ 10 | C[C@H]1CCN1c1nc(-c2cc(F)c(OCC(=O)N3CCNCC3)c(F)c2)c2c(n1)C(F)(F)CC2 [Example 34]
≤ 10 | C[C@H]1CCN1c1nc(N2CC(OCC(=O)N3CCNCC3)C2)c2c(n1)C(F)(F)CC2 [Example 3, (S)-2-((1-(7,7-difluoro-2-(2-methylazetidin-1-yl)-6,7-dihydro-5H-cyclopenta[d]pyrimidin-4-yl)azetidin-3-yl)oxy)-1-(piperazin-1-yl)ethan-1-one]
100 to 1000 | C[C@H]1CCN1c1nc(N2CC[C@H](OCC(=O)N3CCNCC3)C2)cc(C(F)(F)F)n1 [Example 6, 2-(((S)-1-(2-((S)-2-methylazetidin-1-yl)-6-(trifluoromethyl)pyrimidin-4-yl)pyrrolidin-3-yl)oxy)-1-(piperazin-1-yl)ethan-1-one]
10 to 100 | C[C@H]1CCN1c1nc(N2CCN(CC(=O)N3CCNCC3)C(=O)C2)cc(C(F)(F)F)n1 [Example 12, (S)-4-(2-(2-methylazetidin-1-yl)-6-(trifluoromethyl)pyrimidin-4-yl)-1-(2-oxo-2-(piperazin-1-yl)ethyl)piperazin-2-one]
10 to 100 | C[C@H]1CCN1c1nc(N2CCN(CC(=O)N3CCOCC3)CC2)c2c(n1)C(F)(F)CC2 [Example 14, (S)-2-4-(7,7-difluoro-2-(2-methylazetidin-1-yl)-6,7-dihydro-5H-cyclopenta[d]pyrimidin-1-yl)-1-(piperazin-1-yl)morpholinoethan-1-one]
≤ 10 | C[C@H]1CCN1c1nc(N2CCN(C(=O)CC(=O)N3CCNCC3)CC2)c2c(n1)C(F)(F)CC2 [Example 15]
10 to 100 | C[C@H]1CCN1c1nc(N2C[C@H]3C[C@@H](C2)[C@@H]3CC(=O)N2CCNCC2)c2c(n1)C(F)(F)OCC2 [Example 24, 2-((1R,5S,6S)-3-(8,8-difluoro-2-((S)-2-methylazetidin-1-yl)-5,8-dihydro-6H-pyrazol[3,4-d]pyrimidin-4-yl)-3-azabicyclo[3.1.1]heptan-6-yl)-1-(piperazin-1-yl)ethan-1-one]
≤ 10 | C[C@H]1CCN1c1nc(-c2ccc(OCC(=O)N3CCCNCC3)c(Cl)c2)c2c(n1)C(F)(F)CC2 [Example 36, (S)-2-(2-(chloro-4-(7,7-difluoro-2-(2-methylazetidin-1-yl)-6,7-dihydro-5H-cyclopenta[d]pyrimidin-4-yl)phenoxy)-1-(1,4-diazepan-1-yl)ethan-1-one)]
≤ 10 | C[C@H]1CCN1c1nc(N2CC[C@H](OCC(=O)N3CCNCC3)C2)c2c(n1)C(F)(F)CC2 [Example 7, 2-(((2S,3R)-1-(7,7-difluoro-2-((S)-2-methylazetidin-1-yl)-6,7-dihydro-5H-cyclopenta[d]pyrimidin-4-yl)pyrrolidin-3-yl)oxy)-1-(piperazin-1-yl)ethan-1-one]
≤ 10 | C[C@H]1CCN1c1nc(-c2cnc(OCC(=O)N3CCNCC3)c(Cl)c2)c2c(n1)C(F)(F)CC2 [Example 38]
≤ 10 | Cc1c(N2CC(OCC(=O)N3CCNCC3)C2)nc(N2CC[C@@H]2C)nc1C(F)(F)F [Example 26, (S)-2-((1-(5-methyl-2-(2-methylazetidin-1-yl)-6-(trifluoro)pyrimidin-4-yl)azetidin-3-yl)oxy)-1-(piperazin-1-yl)ethan-1-one]
≤ 10 | C[C@H]1CCN1c1nc(N2CCC(OCC(=O)N3CCNCC3)CC2)c2c(n1)C(F)(F)CC2 [Example 10, (S)-2-((1-(7,7-difluoro-2-(2-methylazetidin-1-yl)-6,7-dihydro-5H-cyclopenta[d]pyrimidin-4-yl)piperidin-4-yl)oxy)-1-(piperazin-1-yl)ethan-1-one]
≤ 10 | C[C@H]1CCN1c1nc(N2C[C@@H]3[C@@H](CC(=O)N4CCNC(=O)C4)[C@@H]3C2)c2c(n1)C(F)(F)CC2 [Example 20, 4-(2-((1R,5S,6R)-3-(7,7-difluoro-2-((S)-2-methylazetidin-1-yl)-6,7-dihydro-5H-cyclopenta[d]pyrimidin-4-yl)-3-azabicyclo[3.1.0]hexan-6-yl)acetyl)piperazin-2-one]
10 to 100 | Cc1c(N2CCC(OCC(=O)N3CCNCC3)CC2)nc(N2CC[C@@H]2C)nc1C(F)(F)F [Example 28]
≤ 10 | Cc1c(-c2ccc(OCC(=O)N3CCNCC3)nc2)nc(N2CC[C@@H]2C)nc1C(F)(F)F [Example 40, (S)-2-((5-(5-methyl-2-(2-methylazetidin-1-yl)-6-(trifluoromethyl)pyrimidin-4-yl)pyridin-2-yl)oxy)-1-(piperazin-1-yl)ethan-1-one]

SMILES | Ki [nM]
C[C@H]1CCN1c1nc(N2C[C@@H]3[C@@H](CC(=O)N4CCN(C)CC4)[C@@H]3C2)c2c(n1)C(F)(F)CC2 [Example 19, 2-((1R,5S,6R)-3-(7,7-difluoro-2-((S)-2-methylazetidin-1-yl)-6,7-dihydro-5H-cyclopenta[d]pyrimidin-4-yl)-3-azabicyclo[3.1.0]hexan-6-yl)-1-(4-methylpiperazin-1-yl)ethan-1-one] | ≤ 10
C[C@H]1CCN1c1nc(N2CC(OCC(=O)N3CCNCC3)C2)cc(C(F)(F)F)n1 [Example 1, (S)-2-((1-(2-(2-methylazetidin-1-yl)-6-(trifluoromethyl)pyrimidin-4-yl)azetidin-3-yl)oxy)-1-(piperazin-1-yl)ethan-1-one] | 10 to 100
C[C@H]1CCN1c1nc(N2C[C@H]3C[C@@H](C2)[C@@H]3CC(=O)N2CCNCC2)c2c(n1)C(F)(F)CC2 [Example 21, 2-((1R,5S,6S)-3-(7,7-difluoro-2-((S)-2-methylazetidin-1-yl)-6,7-dihydro-5H-cyclopenta[d]pyrimidin-4-yl)-3-azabicyclo[3.1.0]heptan-6-yl)-1-(piperazin-1-yl)ethan-1-one] | ≤ 10
CC1CCN1c1nc(N2CC3CC(C2)C3CC(=O)N2CCNCC2)c2c(n1)C(F)(F)CCC2 [Example 23, 2-((1R,5S,6S)-3-(8,8-difluoro-2-((S)-2-methylazetidin-1-yl)-5,6,7,8-tetrahydroquinazolin-4-yl)-3-azabicyclo[3.1.1]heptan-6-yl)-1-(piperazin-1-yl)ethan-1-one] | 10 to 100
CC(=O)N1CCN(C(=O)C[C@@H]2[C@@H]3C[C@H]2CN(c2nc(N4CC[C@@H]4C)nc4c2CCC4(F)F)C3)CC1 [Example 22, 1-(4-acetylpiperazin-1-yl)-2-((1R,5S,6S)-3-(7,7-difluoro-2-((S)-2-methylazetidin-1-yl)-6,7-dihydro-5H-cyclopenta[d]pyrimidin-4-yl)-3-azabicyclo[3.1.1]heptan-6-yl)ethan-1-one] | 100 to 1000
C[C@H]1CCN1c1nc(-c2ccc(OCC(=O)N3CCNCC3)nc2)c2c(n1)C(F)(F)CC2 [Example 37] | ≤ 10
